Laboratory results from patent US12378220B2, “WNT signaling pathway inhibitors for treatments of disease” (University of Maryland, Baltimore, priority 2016, dated 2025).
Where two headings read alike, the source gives them in different places.

What was measured:
[1] = test system: WiDr, SW620, HT29, HEK_LTV, and T84 cell lines; test: cell proliferation and growth inhibition assay (CCK-8), cell line panel; assay type: cell-based, human; conditions: 72 h, FIG. 12
Method: Cell Proliferation and Growth Inhibition Assay. HT-29, HCT-116, WiDr, SW620, SW480, T84, A549, MCF-7, HepG2, Hela cells were cultured in respective growth medium. Cells of log phase were used. 3000-5000 cells/well were seeded in 96-well plates with a 100 μL volume. After 24 h, Compounds were dissolved to […] with DMSO, and a 3-fold serial dilution of the compounds from 5×10^−5 M to […] was performed. 2 μL of compound solution was added to 998 μL of growth medium, the mixture was vortexed sufficiently. 100 μL of the mixture was correspondingly added to the 96-well plate. 2 μL DMSO instead of compound solution was used as the 0% inhibitor control. After coincubation for 72 h, the old medium was removed and 100 μL of 10% CCK-8 in culture medium was added. 2 h later the plates were read in the microplate reader (Bio-Rad) at 450 nm. The data was calculated using Graph Pad Prism version 5.0. The IC50 were fitted using a nonlinear regression model with a sigmoidal dose response.

HepG2 cells [2] = test: expression of Wnt pathway proteins; assay type: cell-based, human; conditions: FIG. 3
Method: HepG2 cells were treated by YW1149 (vehicle, 0.1, 1 μM).

[3] = test system: C57BL/6 mice on high-fat diet; conditions: intraperitoneal
Excerpt: C57BL/6 mice (n=6/group) were put either on high-fat (HF) or normal chow (NC) diet.

HepG2 cells [4] = test: glucose production, G6P expression and AMPK phosphorylation; assay type: cell-based, human
[5] = test system: C57BL/6 mice on Western high-fat diet; test: YW1128 on high-fat diet-induced steatosis, liver protein analysis; assay type: in vivo; conditions: I.P. 40 mg/kg/2 days, 11 weeks
Excerpt: FIGS. 36A to 36D illustrate the effect of YW1128 on a high-fat diet (HFD)-induced steatosis. FIG. 36A illustrates representative liver histology by H&E staining. FIG. 36B illustrates an intraperitoneal glucose tolerance test (IPGTT) performed at the end of a study. FIG. 36C illustrates body weight monitoring performed during the treatment.
C57BL/6 mice (n=7/group) were put on a Western high-fat diet (HFD) or normal chow diet (NCD). Seven weeks later, the mice received either vehicle or YW1128 by I.P., 40 mg/kg/2 days, for 11 weeks. Representative liver histology was measured by H&E staining (FIG. 36A). An intraperitoneal glucose tolerance test (IPGTT) was conducted at the end of the study (FIG. 36B). Body weight for the mice was monitored during the treatment (FIG. 36C).

[6] = test system: C57BL/6 mice on high-fat diet; test: YW1128 in high-fat diet mice (liver histology, IPGTT, body weight); assay type: in vivo
Method: Mice were treated with YW1128 and representative liver histology was observed through H&E staining. C57BL/6 mice were placed on a high-fat diet. Seven weeks later (week 0), the mice received either vehicle or YW1128 by IP injection for 11 weeks. Regarding treatment with YW1128, the mice were initially treated at a dose of 10 mg/kg/2 days, which was increased to 40 mg/kg/2 days from week 8. The mice were then euthanized at the end of 11 weeks. Liver histology for vehicle (FIGS. 33A and 33B) and YW1128 (FIGS. 33C and 33D) was examined by H&E staining.
An intraperitoneal glucose tolerance test (IPGTT) was conducted on high-fat diet (HFD) groups at the end of the study. C57BL/6 mice (n=3-4 per group) were put on a high fat diet. Seven weeks later (week 0), the mice received either vehicle or YW1128 by IP injection for 11 weeks. Regarding the treatment with YW1128, the mice were initially treated at a dose of 10 mg/kg/2 days, which was increased to 40 mg/kg/2 days from week 8. FIG. 34A describes the glucose levels at up to 120 minutes post-injection at week 0. FIG. 34B describes the glucose levels at up to 120 minutes post-injection at week 11, where *P<0.05 and **P<0.01, compared to the […].
The effect of YW1128 on body weight was also observed in mice having normal diets (NC) and those having high-fat (HF) diets. C57BL/6 mice (n=3-4 per group) were put on either an HF diet or an NC diet. Seven weeks later, the mice received either YW1128 or vehicle by IP injection. Regarding the treatment with YW1128, the mice were treated at a dose of 40 mg/kg/2 days for seven weeks. The results of such study are shown in FIG. 35, where *P<0.05 for the comparison between HF-vehicle and the other three groups.

Wnt/β-catenin pathway = test: dual-luciferase TCF/LEF reporter assay, LiCl-activated, HEK293 cells; assay type: cell-based; conditions: Homo sapiens; for activity at 1 µM: HEK293, 24 h, At 1 μM concentration, remaining Wnt signaling activity, read-out: RLU % (Relative Light Units in reporter gene assays); for IC50: HEK293, read-out: IC50
Method: Lithium chloride (LiCl), which has been previously established as an activator of the Wnt/β-catenin pathway through its direct and indirect effects on GSK3β was used for pathway activation. The inhibition of the Wnt/β-catenin pathway by a compound may be determined after its incubation with cells for 24 hours.
The assay provided herein is a dual-luciferase assay to measure Wnt/β-catenin pathway activation using a TCF/LEF responsive reporter construct similar to that described previously (Thorne et al., 2010).

[7] = HepG2, 0.1 μM pyrvinium, 10 μM YW1149
[8] = high-fat diet mice, IP injection

IC50 (Wnt/β-catenin pathway; Table 3, values in nM)	Compound	activity at 1 µM (Wnt/β-catenin pathway)	further results
	1-(2-Fluorophenyl)-5-methyl-N-(quinolin-2-yl)-1H-pyrazole-4-carboxamide [YW2035]		growth inhibitory activity [1]: micromolar growth inhibitory activity
	Cc1cc(/C=C/c2ccc3cc(N(C)C)ccc3[n+]2C)c(C)n1-c1ccccc1 [Pyrvinium, pyrvinium, reference compound]		Axin protein expression (HepG2 cells [2]): increased; β-catenin and target gene c-Myc protein (HepG2 cells [2]): attenuation; weight gain [3]: decrease weight gain; expression of glucose 6-phosphatase (G6P) (HepG2 cells [4]; [7]): significantly suppress; glucose production (HepG2 cells [4]; [7]): significantly suppress; phosphorylation of AMPK (HepG2 cells [4]; HepG2 cells): increase phosphorylation
471 nM	Cc1ccccc1-n1nnc(C(=O)Nc2ccc3ccccc3c2)c1C [YW1130, 5-Methyl-N-(naphthalen-2-yl)-1-(o-tolyl)-1H-1,2,3-triazole-4-carboxamide]	19.7%	
34 nM	Cc1ccccc1-n1nnc(C(=O)Nc2nc3ccccc3s2)c1C [YW1132, N-(benzo[d]thiazol-2-yl)-5-methyl-1-(o-tolyl)-1H-1,2,3-triazole-4-carboxamide]	4.9%	
273 nM	Cc1ccc(-n2nnc(C(=O)Nc3cccc(C)n3)c2C)cc1 [YW1134, 5-Methyl-N-(6-methylpyridin-2-yl)-1-(p-tolyl)-1H-1,2,3-triazole-4-carboxamide]	79.5%	
	Cc1c(C(=O)Nc2ccc3ccccc3n2)nnn1-c1cccc2ccccc12 [YW1151, 5-Methyl-1-(naphthalen-1-yl)-N-(quinolin-2-yl)-1H-1,2,3-triazole-4-carboxamide]	79.3%	IC50 (Wnt/β-catenin pathway; Table 3, values in μM): 4000 nM
	Cc1c(C(=O)Nc2ccc3ccccc3n2)nnn1-c1ccccc1N1CCOCC1 [YW1155, 5-Methyl-1-(2-morpholinophenyl)-N-(quinolin-2-yl)-1H-1,2,3-triazole-4-carboxamide]	99.8%	
76 nM	Cc1c(C(=O)Nc2ccc3ccccc3n2)nnn1-c1ccccc1C#N [YW1157, 1-(2-Cyanophenyl)-5-methyl-N-(quinolin-2-yl)-1H-1,2,3-triazole-4-carboxamide]	6.5%	
6.5 nM	Cc1c(C(=O)Nc2ccc3ccccc3n2)nnn1-c1ccccc1F [YW1159, 1-(2-Fluorophenyl)-5-methyl-N-(quinolin-2-yl)-1H-1,2,3-triazole-4-carboxamide]	1.4%	
10 nM	Cc1c(C(=O)Nc2ccc3ccccc3n2)nnn1-c1ccccc1Br [YW1169, 1-(2-Bromophenyl)-5-methyl-N-(quinolin-2-yl)-1H-1,2,3-triazole-4-carboxamide]	3.2%	
567 nM	Cc1cccc(-n2nnc(C(=O)Nc3ccc4ccccc4n3)c2C)c1C [YW1170, 1-(2,3-Dimethylphenyl)-5-methyl-N-(quinolin-2-yl)-1H-1,2,3-triazole-4-carboxamide]	17.8%	
	Cc1c(C(=O)Nc2ccc3ccccc3n2)nnn1-c1ccc(F)cc1[N+](=O)[O-] [YW1171, 1-(4-Fluoro-2-nitrophenyl)-5-methyl-N-(quinolin-2-yl)-1H-1,2,3-triazole-4-carboxamide]	77.8%	IC50 (Wnt/β-catenin pathway; Table 3, values in μM): 5000 nM
731 nM	Cc1c(C(=O)Nc2ccc3ccccc3n2)nnn1-c1cccc(Cl)c1 [YW1173, 1-(3-Chlorophenyl)-5-methyl-N-(quinolin-2-yl)-1H-1,2,3-triazole-4-carboxamide]	26.3%	
130 nM	Cc1ccc(-n2nnc(C(=O)Nc3ccc4ccccc4n3)c2C)c(C)c1 [YW1179, 1-(2,4-Dimethylphenyl)-5-methyl-N-(quinolin-2-yl)-1H-1,2,3-triazole-4-carboxamide]	10.6%	
	Cc1c(C(=O)Nc2ccc3ccccc3n2)nnn1-c1ccccc1-c1ccccc1 [YW1180, 1-([1,1′-biphenyl]-2-yl)-5-methyl-N-(quinolin-2-yl)-1H-1,2,3-triazole-4-carboxamide]	104%	IC50 (Wnt/β-catenin pathway; Table 3, values in μM): 52000 nM
814 nM	CC(=O)c1ccccc1-n1nnc(C(=O)Nc2ccc3ccccc3n2)c1C [YW1181, 1-(2-Acetylphenyl)-5-methyl-N-(quinolin-2-yl)-1H-1,2,3-triazole-4-carboxamide]	18.1%	
	Cc1c(C(=O)Nc2ccc3ccccc3n2)nnn1-c1ccccc1C(N)=O [YW1182, 1-(2-Carbamoylphenyl)-5-methyl-N-(quinolin-2-yl)-1H-1,2,3-triazole-4-carboxamide]	89.9%	IC50 (Wnt/β-catenin pathway; Table 3, values in μM): > 100000 nM
	Cc1ccccc1-n1nnc(C(=O)Nc2nc(-c3ccccc3)cs2)c1C [YW1183, 5-Methyl-N-(4-phenylthiazol-2-yl)-1-(o-tolyl)-1H-1,2,3-triazole-4-carboxamide]	90.8%	IC50 (Wnt/β-catenin pathway; Table 3, values in μM): 22000 nM
47 nM	CCc1c(C(=O)Nc2ccc3ccccc3n2)nnn1-c1ccccc1F [YW2018, 5-Ethyl-1-(2-fluorophenyl)-N-(quinolin-2-yl)-1H-1,2,3-triazole-4-carboxamide]	2.3%	
177 nM	CC(C)c1c(C(=O)Nc2ccc3ccccc3n2)nnn1-c1ccccc1F [YW2020, 1-(2-Fluorophenyl)-5-isopropyl-N-(quinolin-2-yl)-1H-1,2,3-triazole-4-carboxamide]	17.7%	
	Cc1c(C(=O)Nc2ccc3ccccc3n2)cnn1C(C)(C)C [YW2049, 1-(Tert-butyl)-5-methyl-N-(quinolin-2-yl)-1H-pyrazole-4-carboxamide]		growth inhibitory activity [1]: micromolar growth inhibitory activity

Compound	IC50 (Wnt/β-catenin pathway; Table 3, values in nM)	activity at 1 µM (Wnt/β-catenin pathway)	further results
Cc1ccccc1-n1nnc(C(=O)Nc2ccc3ccccc3n2)c1C [YW1128, 5-Methyl-N-(quinolin-2-yl)-1-(o-tolyl)-1H-1,2,3-triazole-4-carboxamide]	7.7 nM	3.7%	CK1a in liver [5]: did not show any significant change; phosphorylation of AMPKα1 at threonine 172 (p-AMPKα) in liver ([5]; vs vehicle-treated livers, 40 mg/kg): increased phosphorylation; liver histology (H&E), fatty liver disease ([6]; high-fat diet mice, IP 11 weeks): did not exhibit any histology of fatty liver disease; body weight gain [6, 8]: decrease body weight gain; glucose tolerance (IPGTT) [6, 8]: significantly improve glucose tolerance; toxicity of subchronic treatment ([6]; mice, IP, up to 40 mg/kg/2 days): did not cause any obvious toxicity; growth inhibitory activity [1]: micromolar growth inhibitory activity
